Assays:
[1] = test system: HCV genotype 1b (Con1) replicon in HUH-7 cells; assay: HCV replicon luciferase reporter assay, genotype 1b; type: cell-based; conditions: Hepatitis C virus, Huh-7, 72 h, HCV genotype 1b replicon luciferase assay, 3 days incubation, range class, read-out: LE_1b (EC50, range)
In short: (§1)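 Replicon inhibition for both genotypes was measured as Renilla luciferase signal (EnduRen, 7.5 μM final, 2 h) after 3-day, 37° C exposure of replicon-bearing HUH-7 cells in 4% FCS DMEM, 0.5% DMSO. The 1b construct carries S1179I; the 1a H77 construct carries P1496L and S2204I. Twenty-point, 3-fold dilutions were fitted four-parametrically for EC50, and CC50 was taken from multiplexed Cell Titer-Blue.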

[2] = test system: HCV genotype 1a (H77 strain) replicon in HUH-7 cells; assay: HCV replicon luciferase reporter assay, genotype 1a; type: cell-based; conditions: Hepatitis C virus, Huh-7, 72 h, HCV genotype 1a replicon luciferase assay, 3 days incubation, range class, read-out: LE_1a (EC50, range)
In short: as §1

Row | Compound | EC50 [1] | EC50 [2]
1 | COc1ccc2c(O[C@@H]3C[C@H]4C(=O)N[C@]5(C(=O)NS(=O)(=O)C6(C)CC6)C[C@H]5/C=C\CC[C@H](C)C[C@@H](C)[C@H](NC(=O)OC(C)(C)C(F)(F)F)C(=O)N4C3)nc(-c3ccc(OC(C)C)c(F)c3)cc2c1 [Compound 3077, 1,1,1-trifluoro-2-methylpropan-2-yl((2R,6S,7R,9S,13aS,14aR,16aS,Z)-2-((3-(3-fluoro-4-isopropoxyphenyl)-6-methoxyisoquinolin-1-yl)oxy)-7,9-dimethyl-14a-(((1-methylcyclopropyl)sulfonyl)carbamoyl)-5,16-dioxo-1,2,3,5,6,7,8,9,10,11,13a,14,14a,15,16,16a-hexadecahydrocyclopropa[e]pyrrolo[1,2-a][1,4]diazacyclopentadecin-6-yl)carbamate] | < 5.46 nM | 4.82 to 103 nM
2 | COc1ccc2c(O[C@@H]3C[C@H]4C(=O)N[C@]5(C(=O)NS(=O)(=O)C6(C)CC6)C[C@H]5/C=C\CC[C@@H](C)C[C@@H](C)[C@H](NC(=O)OC(C)(C)C(F)(F)F)C(=O)N4C3)nc(-c3ccc(OC(C)C)c(F)c3)cc2c1 [Compound 3078, 1,1,1-trifluoro-2-methylpropan-2-yl((2R,6S,7R,9R,13aS,14aR,16aS,Z)-2-((3-(3-fluoro-4-isopropoxyphenyl)-6-methoxyisoquinolin-1-yl)oxy)-7,9-dimethyl-14a-(((1-methylcyclopropyl)sulfonyl)carbamoyl)-5,16-dioxo-1,2,3,5,6,7,8,9,10,11,13a,14,14a,15,16,16a-hexadecahydrocyclopropa[e]pyrrolo[1,2-a][1,4]diazacyclopentadecin-6-yl)carbamate] | < 5.46 nM | < 5.46 nM
3 | COc1ccc2c(O[C@@H]3C[C@H]4C(=O)N[C@]5(C(=O)NS(=O)(=O)C6(C)CC6)C[C@H]5/C=C\CC[C@H](C)C[C@@H](C)[C@H](NC(=O)OC(C)(C)C(F)(F)F)C(=O)N4C3)nc(-c3ccc(F)cc3)cc2c1 [Compound 3079, 1,1,1-trifluoro-2-methylpropan-2-yl((2R,6S,7R,9S,13aS,14aR,16aS,Z)-2-((3-(4-fluorophenyl)-6-methoxyisoquinolin-1-yl)oxy)-7,9-dimethyl-14a-(((1-methylcyclopropyl)sulfonyl)carbamoyl)-5,16-dioxo-1,2,3,5,6,7,8,9,10,11,13a,14,14a,15,16,16a-hexadecahydrocyclopropa[e]pyrrolo[1,2-a][1,4]diazacyclopentadecin-6-yl)carbamate] | < 5.46 nM | 4.82 to 103 nM
4 | COc1ccc2c(O[C@@H]3C[C@H]4C(=O)N[C@]5(C(=O)NS(=O)(=O)C6(C)CC6)C[C@H]5/C=C\CC[C@@H](C)C[C@@H](C)[C@H](NC(=O)OC(C)(C)C(F)(F)F)C(=O)N4C3)nc(-c3ccc(F)cc3)cc2c1 [Compound 3080, 1,1,1-trifluoro-2-methylpropan-2-yl((2R,6S,7R,9R,13aS,14aR,16aS,Z)-2-((3-(4-fluorophenyl)-6-methoxyisoquinolin-1-yl)oxy)-7,9-dimethyl-14a-(((1-methylcyclopropyl)sulfonyl)carbamoyl)-5,16-dioxo-1,2,3,5,6,7,8,9,10,11,13a,14,14a,15,16,16a-hexadecahydrocyclopropa[e]pyrrolo[1,2-a][1,4]diazacyclopentadecin-6-yl)carbamate] | < 5.46 nM | < 5.46 nM
5 | COc1ccc2c(O[C@@H]3C[C@H]4C(=O)N[C@]5(C(=O)NS(=O)(=O)C6(C)CC6)C[C@H]5/C=C\CC[C@H](C)C[C@@H](C)[C@H](NC(=O)OC(C)(C)C)C(=O)N4C3)nc(-c3ccc(F)cc3)cc2c1 [Compound 3081, tert-butyl ((2R,6S,7R,9S,13aS,14aR,16aS,Z)-2-((3-(4-fluorophenyl)-6-methoxyisoquinolin-1-yl)oxy)-7,9-dimethyl-14a-(((1-methylcyclopropyl)sulfonyl)carbamoyl)-5,16-dioxo-1,2,3,5,6,7,8,9,10,11,13a,14,14a,15,16,16a-hexadecahydrocyclopropa[e]pyrrolo[1,2-a][1,4]diazacyclopentadecin-6-yl)carbamate] | < 5.46 nM | 4.82 to 103 nM
6 | COc1ccc2c(O[C@@H]3C[C@H]4C(=O)N[C@]5(C(=O)NS(=O)(=O)C6(C)CC6)C[C@H]5/C=C\CC[C@@H](C)C[C@@H](C)[C@H](NC(=O)OC(C)(C)C)C(=O)N4C3)nc(-c3ccc(F)cc3)cc2c1 [Compound 3082, tert-butyl ((2R,6S,7R,9R,13aS,14aR,16aS,Z)-2-((3-(4-fluorophenyl)-6-methoxyisoquinolin-1-yl)oxy)-7,9-dimethyl-14a-(((1-methylcyclopropyl)sulfonyl)carbamoyl)-5,16-dioxo-1,2,3,5,6,7,8,9,10,11,13a,14,14a,15,16,16a-hexadecahydrocyclopropa[e]pyrrolo[1,2-a][1,4]diazacyclopentadecin-6-yl)carbamate] | < 5.46 nM | < 5.46 nM
7 | COc1ccc2c(O[C@@H]3C[C@H]4C(=O)N[C@]5(C(=O)NS(=O)(=O)C6(C)CC6)C[C@H]5/C=C\CC[C@@H](C)C[C@@H](C)[C@H](NC(=O)O[C@H](C)C(F)(F)F)C(=O)N4C3)nc(-c3ccc(F)cc3)cc2c1 [Compound 3083, (R)-1,1,1-trifluoropropan-2-yl ((2R,6S,7R,9R,13aS,14aR,16aS,Z)-2-((3-(4-fluorophenyl)-6-methoxyisoquinolin-1-yl)oxy)-7,9-dimethyl-14a-(((1-methylcyclopropyl)sulfonyl)carbamoyl)-5,16-dioxo-1,2,3,5,6,7,8,9,10,11,13a,14,14a,15,16,16a-hexadecahydrocyclopropa[e]pyrrolo[1,2-a][1,4]diazacyclopentadecin-6-yl)carbamate] | < 5.46 nM | < 5.46 nM
8 | COc1ccc2c(O[C@@H]3C[C@H]4C(=O)N[C@]5(C(=O)NS(=O)(=O)C6(C)CC6)C[C@H]5/C=C\CC[C@H](C)C[C@@H](C)[C@H](NC(=O)OCC5(C)CC5)C(=O)N4C3)nc(-c3ccc(F)cc3)cc2c1 [Compound 3084, (1-methylcyclopropyl)methyl ((2R,6S,7R,9S,13aS,14aR,16aS,Z)-2-((3-(4-fluorophenyl)-6-methoxyisoquinolin-1-yl)oxy)-7,9-dimethyl-14a-(((1-methylcyclopropyl)sulfonyl)carbamoyl)-5,16-dioxo-1,2,3,5,6,7,8,9,10,11,13a,14,14a,15,16,16a-hexadecahydrocyclopropa[e]pyrrolo[1,2-a][1,4]diazacyclopentadecin-6-yl)carbamate] | < 5.46 nM | 4.82 to 103 nM
9 | COc1ccc2c(O[C@@H]3C[C@H]4C(=O)N[C@]5(C(=O)NS(=O)(=O)C6(C)CC6)C[C@H]5/C=C\CC[C@@H](C)C[C@@H](C)[C@H](NC(=O)OCC5(C)CC5)C(=O)N4C3)nc(-c3ccc(F)cc3)cc2c1 [Compound 3085, (1-methylcyclopropyl)methyl ((2R,6S,7R,9R,13aS,14aR,16aS,Z)-2-((3-(4-fluorophenyl)-6-methoxyisoquinolin-1-yl)oxy)-7,9-dimethyl-14a-(((1-methylcyclopropyl)sulfonyl)carbamoyl)-5,16-dioxo-1,2,3,5,6,7,8,9,10,11,13a,14,14a,15,16,16a-hexadecahydrocyclopropa[e]pyrrolo[1,2-a][1,4]diazacyclopentadecin-6-yl)carbamate] | < 5.46 nM | < 5.46 nM
10 | COc1ccc2c(O[C@@H]3C[C@H]4C(=O)N[C@]5(C(=O)NS(=O)(=O)C6(C)CC6)C[C@H]5/C=C\CC[C@H](C)C[C@@H](C)[C@H](NC(=O)O[C@@H]5C[C@@H]6C[C@@H]6C5)C(=O)N4C3)nc(-c3ccc(F)cc3)cc2c1 [Compound 3086, (1R,3r,5S)-bicyclo[3.1.0]hexan-3-yl((2R,6S,7R,9S,13aS,14aR,16aS,Z)-2-((3-(4-fluorophenyl)-6-methoxyisoquinolin-1-yl)oxy)-7,9-dimethyl-14a-(((1-methylcyclopropyl)sulfonyl)carbamoyl)-5,16-dioxo-1,2,3,5,6,7,8,9,10,11,13a,14,14a,15,16,16a-hexadecahydrocyclopropa[e]pyrrolo[1,2-a][1,4]diazacyclopentadecin-6-yl)carbamate] | < 5.46 nM | < 5.46 nM
11 | COc1ccc2c(O[C@@H]3C[C@H]4C(=O)N[C@]5(C(=O)NS(=O)(=O)C6(C)CC6)C[C@H]5/C=C\CC[C@@H](C)C[C@@H](C)[C@H](NC(=O)O[C@@H]5C[C@@H]6C[C@@H]6C5)C(=O)N4C3)nc(-c3ccc(F)cc3)cc2c1 [Compound 3087, (1R,3r,5S)-bicyclo[3.1.0]hexan-3-yl((2R,6S,7R,9R,13aS,14aR,16aS,Z)-2-((3-(4-fluorophenyl)-6-methoxyisoquinolin-1-yl)oxy)-7,9-dimethyl-14a-(((1-methylcyclopropyl)sulfonyl)carbamoyl)-5,16-dioxo-1,2,3,5,6,7,8,9,10,11,13a,14,14a,15,16,16a-hexadecahydrocyclopropa[e]pyrrolo[1,2-a][1,4]diazacyclopentadecin-6-yl)carbamate] | < 5.46 nM | < 5.46 nM
12 | COc1ccc2c(O[C@@H]3C[C@H]4C(=O)N[C@]5(C(=O)NS(=O)(=O)C6(C)CC6)C[C@H]5/C=C\CC[C@H](C)C[C@@H](C)[C@H](NC(=O)OC(C)(C)C)C(=O)N4C3)nc(N3CCOCC3)cc2c1 [Compound 3088, tert-butyl ((2R,6S,7R,9S,13aS,14aR,16aS,Z)-2-((6-methoxy-3-morpholinoisoquinolin-1-yl)oxy)-7,9-dimethyl-14a-(((1-methylcyclopropyl)sulfonyl)carbamoyl)-5,16-dioxo-1,2,3,5,6,7,8,9,10,11,13a,14,14a,15,16,16a-hexadecahydrocyclopropa[e]pyrrolo[1,2-a][1,4]diazacyclopentadecin-6-yl)carbamate] | < 5.46 nM | < 5.46 nM

Reference: US9499550B2 (BRISTOL-MYERS SQUIBB COMPANY, priority 2012, dated 2016)
